Consider 87 molecules from a melting point compilation (Tetko et al.; mined from patent text by program, amines drawn as free bases though some values may be those of a salt).

In turn, `O=c1[nH]nc2n1-c1ccc(Cl)nc1C(c1ccccc1Cl)=NC2O` (configuration not stated) returned a melting point of 260 to 262 °C.
Then `N#Cc1ccc(Oc2cncc3sc(C(N)=O)cc23)cc1`, with 255 to 257 °C; and `CCc1nn(C2CN(C(C)C)C2)c(C(N)=O)c1NC(=O)c1cc(S(C)(=O)=O)ccc1OCC(C)C`, with 185 to 189 °C; and `CN(CC1CCN(c2ccc(OC(F)(F)F)cc2)CC1)c1ccc(OC[C@@]2(C)Cn3cc([N+](=O)[O-])nc3O2)cc1`, with 172 to 175 °C.
To `Cc1cccc(-c2cn(C)cc(-c3ccccc3)c2=O)c1` belongs 79.5 °C; to `COc1ccc(-c2nc(C)c(C)s2)cc1`, 166 to 170 °C; to `COc1cc(CCNC(=O)C(F)(F)F)ccc1N`, 80 to 81 °C.
For the molecule `N#CS/C=C\C(=O)N1CCCCC1`, the melting point is 88 to 90 °C.
To `CCOc1ccc(C2=NN(C3CCN(C(=O)N4CCOCC4)CC3)C(=O)[C@@H]3CC=CC[C@H]23)cc1OCC` belongs 139 to 141 °C; to `CCOC(=O)COc1ccc2cc(-c3oc4ccccc4c3CCC3CCCC3)ccc2c1Br`, 115 to 120 °C; to `COC(OC)C1CCC2C3CCC4CC(O)CCC4(C)C3C(=O)CC12C` (configuration not stated), 136 to 142 °C.
In the case of `CCN1CC(C(=O)Nc2cnccn2)CC2c3cccc4[nH]cc(c34)CC21` (configuration not stated), the melting point was in the range of 151 to 155 °C.
`COC(=O)C(=Cc1cc(OC)cc(OC)c1)c1ccc(Oc2ccc(C=C3SC(=O)NC3=O)cc2)cc1` came in with a melting point of 126 to 128 °C.
To `COc1cc(C2C(C(=O)O)c3ccccc3C(=O)N2C)cc(OC)c1OC` (configuration not stated) belongs 194 to 195 °C.
`COc1ccccc1N1CCN(CC(O)COc2ccccc2C(=O)O)CC1` (configuration not stated): the melting point was in the range of 198 to 202 °C.
Then `Oc1c(C/C=C/c2ccc(OCc3ccccc3)c(OCc3ccccc3)c2)c(OCc2ccccc2)cc(OCc2ccccc2)c1Cc1ccccc1`, with 93 to 95 °C; and `COc1cc(OC)c(C(=O)CBr)cc1C(=O)O`, with 236 °C; and `O=C(O)c1cccc([N+](=O)[O-])c1Nc1ccc(Br)cc1`, with 194 to 196 °C.
To `COc1cc(C(=O)NS(=O)(=O)c2ccccc2C)ccc1Cc1cccc2ccc(CCCCC(=O)N(C)C)cc12` belongs 88 to 93 °C.
To `Nc1cccc(-c2cc(NC(=O)c3cccs3)nc(-c3ccccc3O)c2)c1` belongs 161 to 162 °C; to `FC(F)(F)c1ccc(OC2CCCCO2)c(Sc2ccccc2)c1` (configuration not stated), 72 to 73 °C.
In the case of `COc1cc(Cc2cnc(N)nc2N)cc(OC)c1-n1cccc1`, the melting point turned out to be 220 °C.
Then `CC(C)(C)OC(=O)[C@@H]1N(S(=O)(=O)c2ccc(O)cc2)CCSC1(C)C`, with 171 °C; and `Nc1cc(C(=O)O)ccc1C(F)(F)F`, with 175 to 177 °C; and `O=c1oc(-c2ccc(OCc3ccc(Cl)c(Cl)c3)cc2)cc(O)c1SCCc1ccccc1`, with 168 to 169 °C.
As for `N#Cc1cc(C(F)(F)F)cc(Cl)c1N1CN(Br)C(C(F)(F)F)=CC1=O`, the melting point is 166 to 167 °C.
With `CN(C)c1ccc2cc(-c3ccnc(SCCO)c3C#N)ccc2c1`, the melting point was in the range of 210 to 212 °C.
To `CN(C)CCCn1c(-c2ccccc2)cc2cc(O)ccc21` belongs 130 °C; to `COC(=O)c1ccc(OCCCCCCc2ccc3cc(OCc4ccccc4)c(OCc4ccccc4)cc3c2)cc1O`, 129 to 131 °C.
`Cc1nc(-n2cccc(OCc3ccccc3)c2=O)sc1C(=O)NCc1ccccc1` came in with a melting point of 198 to 201 °C.
`O=CC1=C(c2ccc(Cl)c(Cl)c2)C2CCC1CC2`: the melting point is 71 to 71.5 °C.
To `O=C1NCC2=C1CN=C(c1ccccc1Cl)c1cc(Cl)ccc12` belongs 243 to 244 °C; to `O=C(O)Cc1ccc(CNC(=O)C2Cc3ccccc3N2S(=O)(=O)c2ccc(-c3cccc(C(F)(F)F)c3)cc2)cc1` (configuration not stated), 90 °C; to `Cc1ccc(S(=O)(=O)OC(C)COc2c([N+](=O)[O-])ccc(F)c2F)cc1` (configuration not stated), 67 to 69 °C.
Then `CC(C)(C)ON=C1CC(=NOC(C)(C)C)c2ccccc2-c2ccccc21`, with 181 to 183 °C; and `COc1c(C)c(NC(=O)CC(C)(C)C)c2c(c1C)C(c1ccc(C(C)C)cc1)C(C)(C)O2` (configuration not stated), with 140 to 141 °C.
In the case of `COC(=O)CC[C@H](NC(=O)CCC#Cc1cnc2nc(NC(=O)C(C)(C)C)nc(O)c2c1)C(=O)OC`, the melting point lay within 162 to 163 °C.
To `Oc1ccc(-c2nc(-c3cccs3)c[nH]2)cc1Cl` belongs 152 to 153 °C.
Then `CN1Cc2c(C(N)=NO)ncn2-c2ccc(F)c(Cl)c2C1=O`, with 228 to 231 °C.
For `CCOC(=O)C1(C(=O)OCC)CCC2(CC1)NCCc1cc(OC)ccc12`, the melting point lay within 81 to 83 °C.
The molecule `NNC(=O)c1cn2ccccc2n1` gave a melting point of 195 to 198 °C.
`CSC1NC(=O)N(C)C(=O)N1N` (configuration not stated) had a melting point of 174 to 175 °C.
To `CON=C[C@H]1NC(=O)[C@H]1NC(=O)OCc1ccccc1` belongs 170 to 171 °C.
Consider `Cc1ccc2cc(C(=O)O)oc2c1C`, for which the melting point was 235 to 237 °C.
Then `Oc1ccccc1Cc1ccc(Cl)nn1`, with 132 °C; and `COc1cc(C(=O)c2nc(C(N)=O)c3ccccn23)ccc1N`, with 241 °C.
`CCOC(=O)c1cc(OCc2ccccc2)c2c(Cl)cc(Cl)cc2n1` came in with a melting point of 146 to 147 °C.
`COc1ccc(F)c2c1C[C@@H](NO)CO2` gave a melting point of 111 to 113 °C.
Molecule `O=C1NC(=O)N(CCc2ccc(Cl)cc2)C1O` (configuration not stated) had a melting point of 151 to 152 °C.
Then `O=C(O)C1CCCC2CSc3ccccc3C21` (configuration not stated), with 200 to 203 °C.
Consider `O=C1C(Cc2ccccc2Cl)c2cc([N+](=O)[O-])ccc2ON1CCO` (configuration not stated), for which the melting point is 108 to 110 °C.
To `CCOC(=O)c1cc2cccc(N(C)S(=O)(=O)c3cccs3)c2n1COC` belongs 143 to 145 °C; to `CC(C)(C)c1nc(C(=O)c2nccs2)nc(C(C)(C)C)c1O`, 181 to 184 °C; to `C[Si](C)(C)C1=C(c2ccccc2)C(c2ccccc2)=C([Si](C)(C)C)[Si]1(C)C`, 100 °C.
Then `COc1nc2cc(Cl)cc(C)c2nc1OC`, with 94 to 96 °C.
For the molecule `O=C(Nc1ccc(S(=O)(=O)F)cc1)c1cc(Cl)ccc1[N+](=O)[O-]`, the melting point was in the range of 182 to 184 °C.
In turn, `COC1(c2cccc(OCc3ccc(-n4cnc(-c5ccccc5)c4)cc3)c2)CCOCC1` came in with a melting point of 98 to 100 °C.
To `C[C@@H](N(CCO)C(=O)c1ccc(C(F)(F)F)cc1)[C@](O)(Cn1cncn1)c1ccc(Cl)cc1Cl` (relative stereo) belongs 185 to 189 °C; to `Cc1nc(Cl)n(-c2ccccc2)n1`, 81 to 84 °C.
Then `CC(=O)c1c(O)cccc1OCC(O)COc1c(C)cccc1C` (configuration not stated), with 88 to 90 °C; and `CC(=O)ON=C1C(=O)Nc2cc(Cl)cc(Cl)c2C1=O`, with 194 to 195 °C.
As for `CC(C)c1ccc(N(Cc2ccc(N(C)C)cc2)C(=O)Nc2c(C(C)C)cccc2C(C)C)cc1`, the melting point lay in the range of 203 to 206 °C.
With `CC1(C)Oc2ccc(C(=O)CCl)cc2S1`, the melting point is 84 to 86 °C.
Then `Cc1ccc(C(=O)Nc2cc(N3CCOCC3)cc(C(F)(F)F)c2)cc1Nc1nccc(-c2cccnc2)n1`, with 208 to 211 °C; and `CN(CCCCCCNC(=NCCCOc1cccc(CN2CCCCC2)c1)NC#N)CCN(Cc1ccc(F)cc1)c1ccccn1`, with 58 °C.
Then `CC1Cc2c(occ(C=O)c2=O)-c2ccccc21` (configuration not stated), with 146 to 148 °C; and `C#CCCCOc1c(C)cc(C#N)cc1C`, with 48 to 49 °C.
Then `O=S(=O)(c1ccccc1)n1c2cc(O)c(O)cc2c2ccc(O)c(O)c21`, with 176 to 178 °C.
`COc1ccc(-c2nc3ccc(OC(F)(F)F)cc3[nH]2)cc1OCc1ccccc1` returned a melting point of 226 to 228 °C.
`OCCOCc1nn(Cc2ccccc2)c2ccccc12` came in with a melting point of 67 to 69 °C.
Then `Cn1nc(Cl)cc(Nc2ccn(C3CN(C(=O)OC(C)(C)C)C3)n2)c1=O`, with 154 to 156 °C; and `Clc1ccc2c(c1)C(n1ccnc1)c1ccccc1CS2` (configuration not stated), with 175 to 176 °C; and `Cc1ccc(-c2c(NS(=O)(=O)c3ccc(C(C)(C)C)cc3)ncnc2OCCOc2ccc(-c3nnn[nH]3)cc2)cc1`, with 165 to 166 °C.
`O=S(=O)(CCN1CCOCC1)OCCOc1ccn(-c2ccc(Cl)c(Cl)c2)n1` had a melting point of 120 to 122 °C.
With `O=c1[nH]nc2c3c(cccc13)N=CN2`, the melting point is > 300 °C.
To `CNC(=S)C1=CC(CF)(CF)Oc2ccc(C(F)(F)C(F)(F)F)cc21` belongs 148 to 149 °C.
To `CCCCCCCCCCCCCCCc1ccc2c(c1)C1(O)C(=O)c3ccccc3C1(O)O2` (configuration not stated) belongs 105 to 110 °C.
Then `CCN(CC)C(=O)n1cc(Br)c(S(=O)(=O)c2cc(C)ccc2C)n1`, with 83 to 84 °C; and `BrCc1cc2ccccc2s1`, with 107 to 109 °C.
As to `Cc1cccc(-c2nc(Cl)cc(Cl)n2)c1`, the melting point was 80 to 81 °C.
To `CC(=O)Nc1nc(-c2ccc(O)cc2O)cs1` belongs 264 °C; to `CN1C[C@@H]2C[C@@]1(C(=O)c1ccc(-c3[nH]nc4c3C(=O)c3c(NC(=O)NN5CCOCC5)cccc3-4)s1)CN2`, 224 to 225 °C.
Then `CC12C=CC(=O)C=C1C(F)CC1C2=CCC2(C)C(C(=O)CCl)=CCC12` (configuration not stated), with 196 to 200 °C; and `Clc1ccc2c(c1)N=C(NCc1cccnc1)c1ccccc1S2`, with 152 to 153 °C; and `CCCc1c(OCCCSc2ccc(C(=O)CCCO)cc2)ccc(C(C)=O)c1O`, with 73 to 75 °C.
Then `CC(=O)NC[C@H]1CN(c2ccc(N3CCN(CCCO)CC3)c(F)c2)C(=O)O1`, with 154 to 156 °C; and `CC(CCCCN(C)c1ccccc1)NCC(O)c1ccc(O)c(C(N)=O)c1` (configuration not stated), with 157 to 160 °C.
